Data: patent publication US7049321B2, “Methods and pharmaceutical compositions for treatment of central and peripheral nervous system disorders and compounds useful therefor” (Israel Institute for Biological Research, priority 2002, dated 2006)
Entries after “also recorded” stand apart in the source; their conditions may differ.

Assays:
[1] = system: Rat pheochromocytoma cells transfected with M1 mAChR; test: Neurite outgrowth response; assay type: cell-based; settings: for Emax: Rattus norvegicus, read-out: Maximal response, percent of cells with neurites
Method: Rat pheochromocytoma cells transfected with M1 mAChR cells were grown as described in Gurwitz et al, (NeuroReport 6, 485,1995). For determination of neurite outgrowth, cells plated in six-well plates were used 3–5 days after-plating. Growth factors were added 1 day after plating and muscarinic agonists were added for the last 24 hrs.
Cells were observed under an inverted microscope. The percent of cells with neurite longer than cell diameter were scored in three random fields of several hundred cells from each well. Results were expressed as a percent of cells with neurites. Treatments were performed in triplicate cells. Both NGF (50 ng/ml) and EGF (100 ng/ml) were added 1 day after plating. Muscarinic agonists were added 24 hours before scoring.

[2] = Pharmacokinetic study in rats; assay type: in vivo; settings: rat; for biovailability in rats: in vivo; for AUC(0-inf) / Cmax / MRT / Tmax / half-life: plasma, Rats
Source text: The results of the PK profile of AF292 in rats and Beagle dogs (overnight fasting; drug administered in water solution; gavage) are listed in Table 1.

[3] = system: cells transfected with M1 mAChR; test: Protection from H2O2-induced toxicity; assay type: cell-based, rat
[4] = system: trihexyphenidyl rats; test: Passive avoidance in trihexyphenidyl-treated rats; assay type: in vivo, Wistar rats; settings: for Retention latency: 24 h; for Effect on passive avoidance: AF292 0.03, 0.05, 0.1, 0.3, 0.5 mg/kg p.o., AF267B 0.5, 1, 5; for MED: p.o.
Source text: Trihexyphenidyl is a selective M1 muscarinic antagonist that crosses the blood brain barrier and induces memory and learning impairments (Bymaster et al. J Pharmacol Exp Ther 267: 16–24, 1993. Roldan et al Neurosci. Lett. 230: 93–96, 1997; Kimura et al Brain Res. 834: 6–12, 1999).
Naive Wistar rats were used in the experiments below. The passive avoidance (PA) task is comprised of training (acquisition) phase and a retention phase. In the training procedure each rat was individually placed in the small illuminated compartment and after 60 sec. of familiarization/adaptation, the door to the large compartment was opened and the latency to enter was measured (Initial Latency). Immediately following entry into the dark compartment, the door was closed and inescapable foot shock (0.6 mA for 3 sec) was delivered through the grid floor. A cutoff point of 180 sec was used for initial latency. […] After the acquisition trial the rat was returned to its home cage. Retention of the passive avoidance task was measured 24 h later, by again placing the rat in the light compartment and after a 60 sec adaptation interval, the door was opened and the latency to re-enter the dark compartment was measured. A cutoff point of 300 sec was used for retention latency.

[5] = system: Rat pheochromocytoma cells transfected with M1 mAChR; assay type: cell-based; settings: for Cell death induced by β-A25-35: β-A25-35 (1 μM), 24 hrs, serum-deprived
Method: Confluent rat pheochromocytoma cells transfected with the M1 mAChR cultures were detached with trypsin, washed and plated in 24-well, 6-well, 60-mm or 100-mm plates that were precoated with rat tail collagen (Sigma, Israel). Several experiments were performed in serum-free medium. For 3-(4,5-dimethylthiazol-2-yl)-2,5-diphenyl-tetrazolium bromide (MTT) assay, cells (1.5×10^4) were plated in 96-well collagen-precoated plates, in serum-free medium, with or without various drugs for 24 hours. For differentiation, cells were grown in the presence of 1% FCS and 1% HS, with addition of 50 ng/ml NGF for 7 days, to cause full differentiation. […] After 7 days, cells were washed and the medium was either replaced to serum-free, or cells were detached and replated in serum-free medium. Cells in serum-free medium were treated either with Aβ peptides that were previously “aged” or with H2O2. Tested compounds were added together with the insults for the indicated time, unless otherwise stated.
Cells were plated in 96-well plates in 100 μl medium. After exposure to various treatments, 10 μl of 5 mg/ml MTT [3-(4,5-dimethylthiazol-2-yl)-2,5-diphenyl-tetrazolium bromide; Sigma, Israel] solution in phosphate-buffered saline (PBS) was added to each well. Plates were incubated for 2 hrs at 37° C. followed by hydrocholoric acid-isopropanol addition (100 μl of 0.04N HCl/isopropanol). Plates were read using ELISA reader at a wavelength of 570 nm.
The MTT assay measures primary early changes within the cells, reflecting the integrity of the electron transport chain and provides a readout of cellular redox activity. This test is a specific, early indicator of the mechanism of β-amyloid-mediated cell death and can be used to detect rapid inhibitory response.

[6] = target: T1, M1 mAChR (Rattus norvegicus, UniProt P08482); test: α-APPs secretion in cell cultures stably transfected with the M1 mAChR; assay type: cell-based; settings: for Emax: read-out: α-APPs secretion, % of maximal response of carbachol
T1 construct: expressed in transfected cells; elsewhere rat pheochromocytoma cells
T1 sequence (P08482 1-460): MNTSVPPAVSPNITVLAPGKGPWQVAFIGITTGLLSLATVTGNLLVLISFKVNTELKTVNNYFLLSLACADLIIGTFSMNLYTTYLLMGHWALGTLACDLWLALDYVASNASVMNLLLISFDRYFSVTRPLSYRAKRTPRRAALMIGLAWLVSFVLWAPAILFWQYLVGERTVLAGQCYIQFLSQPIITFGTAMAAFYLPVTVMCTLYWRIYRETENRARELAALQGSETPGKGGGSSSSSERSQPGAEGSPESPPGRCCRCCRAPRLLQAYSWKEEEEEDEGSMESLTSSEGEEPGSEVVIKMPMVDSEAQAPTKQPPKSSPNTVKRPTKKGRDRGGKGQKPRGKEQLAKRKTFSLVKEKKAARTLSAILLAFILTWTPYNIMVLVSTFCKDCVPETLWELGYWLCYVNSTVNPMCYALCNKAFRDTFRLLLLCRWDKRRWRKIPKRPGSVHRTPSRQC
Method: Cells were plated in 6 well culture plates and used at the age of 3–5 days after plating. […] Cells exposed to medium alone are referred as controls.
Cell supernatants were collected into Eppendorff tubes containing a cocktail of protease inhibitors (5 units/ml aprotinin, […], […] and 10^−4M Phenylmethylsulfonylfluoride (PMSF, a protease inhibitor); Sigma, USA). The collected media were concentrated with Centricon tubes (Amicon, Beverly, Mass., USA) and kept frozen for α-APPs secretion determination. Equal amounts of protein (50–100 μg) were loaded and separated on 10% sodium dodecyl sulfate-polyacrylamide gel electrophoresis (SDS-PAGE). Followed by western blotting onto nitrocellulose membrane, blocked by fat-free milk, and probed for 24 hours at 4° C., with anti-Alzheimer's precursor protein, A4 monoclonal antibody 22C11 (0.25 μg/ml; Boehringer Mannheim, Germany). The nitrocellulose membranes were washed and incubated for 2 hours at room temperature with peroxidase-linked goat anti-mouse IgG antibodies (Jackson Immunoresearch, USA), followed by extensive washout and staining with enhanced chemiluminescence detection system (Amersham). Quantitative evaluation of the immunoreactive bands, on the exposed films, was performed by video-imaging densitometry (Gel-aid software; Galai Co., Israel). APPs levels were expressed as x-fold increase over basal levels.

[7] = oral, extrapolated for 10 mg/kg

For `CC1=NCC2(CCN(C)CC2)S1` [AF150(S), 2,8-Dimethyl-1-thia-3,8-diaza-spiro[4.5]dec-2-ene], which Emax [1] is on record?
Its Emax is 30%.

And the biovailability in rats [2]?
The biovailability in rats was 31%.

And the “Protection from H2O2-induced toxicity” value [3]?
Its value is “protect the cells”.

What about the Retention latency ([4]; 5 mg/kg p.o.) of the same compound?
The Retention latency was 222 ± 25.6 s.

And the “Cell death induced by β-A25-35” value [5]?
The value was “significantly attenuated”.

What about the Emax [6] of the same compound?
The Emax was 50%.

What does the source list for `CC[C@@H]1SC2(CCN(C)CC2)NC1=O` [AF267B, (S)-2-ethyl-8-methyl-1-thia-4,8-diaza-spiro[4.5]decan-3-one]?
Emax [1]: 60%; AUC(0-inf) [2, 7]: 1550 ng·h/mL; Cmax [2, 7]: 1700 ng/mL; AUC(0-inf) ([2]; po, 5 mg/kg): 773 ng·h/mL; Cmax ([2]; po, 5 mg/kg): 852 ng/mL; MRT ([2]; po, 5 mg/kg): 60 min; Tmax ([2]; po, 5 mg/kg): 15 min; half-life ([2]; po, 5 mg/kg): 38.4 min; Protection from H2O2-induced toxicity [3]: protect the cells; Retention latency ([4]; 0.5 mg/kg p.o.): 181.1 ± 35.4 s; Retention latency ([4]; 1 mg/kg p.o.): 290.1 ± 8.5 s; Effect on passive avoidance [4]: 0.5, 1, 5 positive effects; MED [4]: MED 0.1–0.5 mg/kg, p.o.; MTT assay against Aβ 25–35 & H2O2 in cell cultures transfected with rat M1 mAChR [5]: 100%; Cell death induced by β-A25-35 [5]: significantly attenuated; EC50 [6]: 3 µM; α-APPs secretion, % of maximal response of carbachol [6]: equal to maximal response of carbachol; α-APPs secretion, fold increase over control ([6]; 10^−4M, maximal increase): about 6 fold; Emax [6]: 100%

What does the source list for `CC[C@@H]1SC2(CCNCC2)NC1=O` [AF292, (S)-2-Ethyl-1-thia-4,8-diaza-spiro[4.5]decan-3-one]?
Neurotrophic effect ([1]; blocked by atropine): neurotrophic; biovailability in rats [2]: 49%; AUC(0-inf) ([2]; po, 10 mg/kg): 2150 ng·h/mL; Cmax ([2]; po, 10 mg/kg): 1910 ng/mL; MRT ([2]; po, 10 mg/kg): 90 min; Tmax ([2]; po, 10 mg/kg): 30 min; half-life ([2]; po, 10 mg/kg): 59.4 min; Protection from H2O2-induced toxicity [3]: protect the cells; Effect on passive avoidance [4]: positive effects; MED [4]: < 0.03 mg/kg; Duration of action ([4]; rat, in vivo): LONG DURATION OF ACTION; Potency among the tested agonists ([4]; rat, in vivo): most potent compound among the tested agonists; MTT assay against Aβ 25–35 & H2O2 in cell cultures transfected with rat M1 mAChR [5]: Equipotent with AF267B & CCh at 100 μM; Even; Cell death induced by β-A25-35 [5]: significantly attenuated; EC50 [6]: 3 µM; α-APPs secretion, comparison in words [6]: as effective as AF267B; also recorded: Equipotent with AF267B &; Emax [6]: 100%
